Holding throughout (type): biochemical
One experiment addresses T1, MMP-9 (Homo sapiens, UniProt P14780).
T1 construct: purchased R&D Systems 911-MP
Description: In vitro MMP-9 inhibition test. The following applies: human MMP-9. An excerpt:
(§1) The MMP-mediated amidolytic cleavage of a suitable peptide substrate leads to an increase in fluorescent light here too. The signal intensity of the fluorescent light is directly proportional to the enzyme activity. The active concentration of a test compound at which half the enzyme is inhibited (50% signal intensity of the fluorescent light) is reported as the IC50 value.
(§2) Recombinant MMP-9 (R&D Systems, 911-MP) is chemically activated in accordance with the manufacturer's instructions using APMA. 1 μl of the test compound to be analysed (as a solution in DMSO, suitable concentrations e.g. 1 nM to 30 μM) is pipetted into 24 μl of activated enzyme (final concentration e.g. 0.1 nM) in reaction buffer (50 mM Tris/HCl pH 7.5, 10 mM CaCl2, 150 mM NaCl, 0.05% Brij®-35) in a white 384-hole microtiter plate (MTP). The enzymatic reaction is started by adding the intramolecularly quenched Mca-Pro-Leu-Gly-Leu-Dpa(Dnp)-Ala-Arg-NH2 substrate (final concentration e.g. 10 μM; R&D Systems, ES-001), so as to result in a total test volume of 50 μl. The course of the MMP-9 reaction is measured by measuring the fluorescence intensity (excitation 320 nm, emission 410 nm) over a suitable period of time (e.g. over 120 min at a temperature of 32° C.).

Experiment [1] addresses T2, human macrophage elastase (HME/hMMP-12) (Homo sapiens, UniProt P39900).
T2 construct: purchased R&D Systems 917-MP
Description: In vitro HME inhibition test (standard or high-sensitivity). The following applies: in some cases mean values, rounded to two significant figures. Put shortly: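 Autoactivated HME (0.5 nM; high-sensitivity format 0.05 nM, ~16 h) with 5 μM quenched Mca-PLGLEEA-Dap(Dnp)-NH2 substrate in HEPES pH 7.4, NaCl, CaCl2, ZnCl2, EDTA, Brij buffer, 2 h at 37° C. Fluorescence at ex 323/em 393 nm; IC50 from signal versus concentration.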

In a further experiment the target is T3, MMP-1 (Homo sapiens, UniProt P03956).
T3 construct: purchased R&D Systems 901-MP
T3 sequence (P03956 100-469): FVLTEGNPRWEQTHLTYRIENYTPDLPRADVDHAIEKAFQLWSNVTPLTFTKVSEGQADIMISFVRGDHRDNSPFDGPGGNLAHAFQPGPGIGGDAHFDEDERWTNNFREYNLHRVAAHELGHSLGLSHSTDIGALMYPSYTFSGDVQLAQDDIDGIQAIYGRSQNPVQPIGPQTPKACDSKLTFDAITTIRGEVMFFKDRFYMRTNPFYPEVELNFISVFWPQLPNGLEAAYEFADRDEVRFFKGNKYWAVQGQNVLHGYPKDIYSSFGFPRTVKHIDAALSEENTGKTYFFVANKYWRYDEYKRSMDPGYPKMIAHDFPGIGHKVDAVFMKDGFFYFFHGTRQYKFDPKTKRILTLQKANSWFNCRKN
Kind of experiment: In vitro MMP-1 inhibition test. The following applies: human MMP-1.
Text: as §1
as §2, with “MMP-1” for “MMP-9”, “901-MP)” for “911-MP)”, “2” for “0.1”

Molecules are shown by their SMILES. Where only a bound is given, the exact number is not on record here.

T2 sequence (P39900 106-470): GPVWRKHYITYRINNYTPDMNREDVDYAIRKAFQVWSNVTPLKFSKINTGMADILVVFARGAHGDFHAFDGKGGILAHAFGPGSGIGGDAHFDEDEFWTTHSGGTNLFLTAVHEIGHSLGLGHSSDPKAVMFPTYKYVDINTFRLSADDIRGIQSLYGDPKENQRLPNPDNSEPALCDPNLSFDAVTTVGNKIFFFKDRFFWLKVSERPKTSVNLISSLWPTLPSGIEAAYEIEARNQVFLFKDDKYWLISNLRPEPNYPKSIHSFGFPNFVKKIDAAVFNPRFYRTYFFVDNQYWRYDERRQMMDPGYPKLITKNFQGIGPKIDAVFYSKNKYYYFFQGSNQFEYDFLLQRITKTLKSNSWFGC
T1 sequence (P14780 107-707 limits assumed): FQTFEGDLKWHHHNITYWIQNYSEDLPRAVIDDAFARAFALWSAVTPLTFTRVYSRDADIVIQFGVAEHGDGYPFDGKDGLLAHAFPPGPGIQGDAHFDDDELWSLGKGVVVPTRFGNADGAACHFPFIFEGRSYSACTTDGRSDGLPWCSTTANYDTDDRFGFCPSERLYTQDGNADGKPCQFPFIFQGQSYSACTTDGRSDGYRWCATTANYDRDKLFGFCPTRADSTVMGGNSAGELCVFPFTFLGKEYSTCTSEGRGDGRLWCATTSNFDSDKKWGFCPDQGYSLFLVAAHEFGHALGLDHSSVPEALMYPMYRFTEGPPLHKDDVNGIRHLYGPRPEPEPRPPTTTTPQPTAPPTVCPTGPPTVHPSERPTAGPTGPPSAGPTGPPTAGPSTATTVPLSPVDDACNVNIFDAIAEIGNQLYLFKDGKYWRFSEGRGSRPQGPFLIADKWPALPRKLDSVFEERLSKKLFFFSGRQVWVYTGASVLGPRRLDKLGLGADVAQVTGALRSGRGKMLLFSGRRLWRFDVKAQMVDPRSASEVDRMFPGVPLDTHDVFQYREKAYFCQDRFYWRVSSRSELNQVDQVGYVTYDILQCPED

On to `O=C(CC(CCn1nnc2ccccc2c1=O)C(=O)O)c1cc2cc(OCCc3ccc(Cl)cc3)ccc2o1` (racemic) [Example 2, (+/−)-4-{5-[2-(4-Chlorophenyl)ethoxy]-1-benzofur-2-yl}-4-oxo-2-[2-(4-oxo-1,2,3-benzotriazin-3(4H)-yl)ethyl]butanoic acid], for which the concentration for half-maximal inhibition (IC50) (usually the concentration that gives 50% inhibition) against MMP-9 is 24000 nM; in experiment [1] it was 2.6 nM; against MMP-1 it was > 40000 nM.
As to `O=C(CC(CCn1nnc2ccccc2c1=O)C(=O)O)c1cc2cc(OCc3cccc(Cl)c3)ccc2o1` (racemic) [Example 50, (+/−)-4-{5-[(3-Chlorobenzyl)oxy]-1-benzofur-2-yl}-4-oxo-2-[2-(4-oxo-1,2,3-benzotriazin-3(4H)-yl)ethyl]butanoic acid], the figures for the IC50 (against MMP-9; in experiment [1]; at MMP-1) were 26000 nM, 1.6 nM and > 40000 nM, respectively.
On to `O=C(CC(CCn1nnc2ccccc2c1=O)C(=O)O)c1coc2cc(OCC3CCCCC3)ccc12` (single isomer, unassigned; (+)) [Example 82, (+)-4-[6-(Cyclohexylmethoxy)-1-benzofur-3-yl]-4-oxo-2-[2-(4-oxo-1,2,3-benzotriazin-3(4H)-yl)ethyl]butanoic acid], for which the values for the half-maximal inhibitory concentration (IC50) (against MMP-9; in experiment [1]; at MMP-1) were 94 nM, 0.089 nM and > 40000 nM, respectively.
`O=C(CC(CCn1nnc2ccccc2c1=O)C(=O)O)c1noc2cc(OCc3cccnc3)ccc12` (racemic) [Example 148, (+/−)-4-Oxo-2-[2-(4-oxo-1,2,3-benzotriazin-3(4H)-yl)ethyl]-4-[6-(pyridin-3-ylmethoxy)-1,2-benzoxazol-3-yl]butanoic acid]: the IC50 against MMP-9 is 910 nM; in experiment [1], 1.8 nM; against MMP-1, > 40000 nM.
The like results for `CCCCCCCOc1ccc2c(C(=O)CC(CCn3nnc4ccccc4c3=O)C(=O)O)coc2c1` (racemic) [Example 101, (+/−)-4-[6-(Heptyloxy)-1-benzofur-3-yl]-4-oxo-2-[2-(4-oxo-1,2,3-benzotriazin-3(4H)-yl)ethyl]butanoic acid] were, in that order, 420 nM, 0.53 nM and > 40000 nM.
For `CCCCCOc1ccc2c(C(=O)CC(CCn3nnc4ccccc4c3=O)C(=O)O)coc2c1` (racemic) [Example 89, (+/−)-4-Oxo-2-[2-(4-oxo-1,2,3-benzotriazin-3(4H)-yl)ethyl]-4-[6-(pentyloxy)-1-benzofur-3-yl]butanoic acid], in that order: 230 nM, 0.35 nM and > 40000 nM.
For the compound `O=C(CC(CCn1nnc2ccccc2c1=O)C(=O)O)c1coc2cc(OCC3CCCC3)ccc12` (single isomer, unassigned; (+)) [Example 80, (+)-4-[6-(Cyclopentylmethoxy)-1-benzofur-3-yl]-4-oxo-2-[2-(4-oxo-1,2,3-benzotriazin-3(4H)-yl)ethyl]butanoic acid], the results for the 50% inhibitory concentration (IC50) (on MMP-9; in experiment [1]; at MMP-1) were 280 nM, 0.46 nM and > 40000 nM, respectively.
The like results for `O=C(CC(CCn1nnc2ccccc2c1=O)C(=O)O)c1cc2cc(OCCc3ccccc3)ccc2o1` (single isomer, unassigned; (+)) [Example 21, (+)-4-Oxo-2-[2-(4-oxo-1,2,3-benzotriazin-3(4H)-yl)ethyl]-4-[5-(2-phenylethoxy)-1-benzofur-2-yl]butanoic acid] were, in that order, 5600 nM, 2.2 nM and > 40000 nM.
For the compound `O=C(CC(CCn1nnc2ccccc2c1=O)C(=O)O)c1coc2cc(OCCC3CCOCC3)ccc12` (racemic) [Example 74, (+/−)-4-Oxo-2-[2-(4-oxo-1,2,3-benzotriazin-3(4H)-yl)ethyl]-4-{6-[2-(tetrahydro-2H-pyran-4-yl)ethoxy]-1-benzofur-3-yl}butanoic acid], the IC50 was 180 nM against MMP-9, 0.18 nM in experiment [1] and > 40000 nM against MMP-1.
The like results for `O=C(CC(CCn1nnc2ccccc2c1=O)C(=O)O)c1cc2cc(OCc3ccc(F)cc3)ccc2o1` (single isomer, unassigned; (+)) [Example 23, (+)-4-{5-[(4-Fluorobenzyl)oxy]-1-benzofur-2-yl}-4-oxo-2-[2-(4-oxo-1,2,3-benzotriazin-3(4H)-yl)ethyl]butanoic acid] were, in that order, 13000 nM, 0.81 nM and > 40000 nM.
The like results for `O=C(CC(CCn1nnc2ccccc2c1=O)C(=O)O)c1coc2cc(OCCC3CCCC3)ccc12` (racemic) [Example 75, (+/−)-4-[6-(2-Cyclopentylethoxy)-1-benzofur-3-yl]-4-oxo-2-[2-(4-oxo-1,2,3-benzotriazin-3(4H)-yl)ethyl]butanoic acid] were, in that order, 450 nM, 0.22 nM and > 40000 nM.
For `CCCCCOc1ccc2cc(C(=O)CC(CCn3nnc4ccccc4c3=O)C(=O)O)sc2c1` (racemic) [Example 118, (+/−)-4-Oxo-2-[2-(4-oxo-1,2,3-benzotriazin-3(4H)-yl)ethyl]-4-[6-(pentyloxy)-1-benzothiophen-2-yl]butanoic acid], in that order: 1200 nM, 2.7 nM and > 40000 nM.
In the case of `O=C(CC(CCn1nnc2ccccc2c1=O)C(=O)O)c1onc2cc(OCc3ccccc3)ccc12` (racemic) [Example 156, (+/−)-4-[6-(Benzyloxy)-2,1-benzoxazol-3-yl]-4-oxo-2-[2-(4-oxo-1,2,3-benzotriazin-3(4H)-yl)ethyl]butanoic acid], the IC50 against MMP-9 is 170 nM; in experiment [1], 2.4 nM; on MMP-1, > 40000 nM.
For `O=C(CC(CCn1nnc2ccccc2c1=O)C(=O)O)c1noc2cc(OCC3CCCCC3)ccc12` (racemic) [Example 153, (+/−)-4-[6-(Cyclohexylmethoxy)-1,2-benzoxazol-3-yl]-4-oxo-2-[2-(4-oxo-1,2,3-benzotriazin-3(4H)-yl)ethyl]butanoic acid], in that order: 450 nM, 1.3 nM and > 40000 nM.
The like results for `CCCCCOc1ccc2c(C(=O)CC(CCn3nnc4ccccc4c3=O)C(=O)O)coc2c1` (single isomer, unassigned) [Example 91, 4-Oxo-2-[2-(4-oxo-1,2,3-benzotriazin-3(4H)-yl)ethyl]-4-[6-(pentyloxy)-1-benzofur-3-yl]butanoic acid] were, in that order, 41 nM, 0.23 nM and > 40000 nM.
The like results for `O=C(CC(CCn1nnc2ccccc2c1=O)C(=O)O)c1cc2ccc(OCCCC3CCCCC3)cc2o1` (racemic) [Example 71, (+/−)-4-[6-(3-Cyclohexylpropoxy)-1-benzofur-2-yl]-4-oxo-2-[2-(4-oxo-1,2,3-benzotriazin-3(4H)-yl)ethyl]butanoic acid] were, in that order, > 40000 nM, 2.2 nM and > 40000 nM.
As to `O=C(CC(CCn1nnc2ccccc2c1=O)C(=O)O)c1cc2ccc(OCC3CC3)cc2s1` (racemic) [Example 111, (+/−)-4-[6-(Cyclopropylmethoxy)-1-benzothiophen-2-yl]-4-oxo-2-[2-(4-oxo-1,2,3-benzotriazin-3(4H)-yl)ethyl]butanoic acid], the IC50 on MMP-9 is 1100 nM; in experiment [1], 3.3 nM; at MMP-1 it was > 40000 nM.

Source of the values: patent US20170121315A1, “HETEROBICYCLICALLY SUBSTITUTED 4-OXOBUTANE ACID DERIVATIVES AND USE THEREOF” (priority 2014, published 2017).
